Laboratory results published in PubChem BioAssay (NCI).
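Compound exposure: 48 hours, 5 concentrations, 96-well plates. At the GI50, growth is halved. TGI is the concentration that stops growth completely.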

System: MDA-MB-468 breast
Assay: NCI tumour cell line growth inhibition, 48 h

Structure (SMILES) | GI50 | TGI
O=C1CC(=O)OC(c2ccc([N+](=O)[O-])cc2)O1 | 1670 nM | 3480 nM
C/C(=N\NC(N)=S)c1nc2ccc(Cl)cc2[nH]1 | 1970 nM | 19100 nM
Cc1cc(N/N=C/c2nc(-c3ccc(Cl)cc3)oc2C)c2cc(Cl)ccc2n1 | 1780 nM | 3550 nM
COc1ccc(C(=O)N2c3ccccc3Sc3ccccc32)c(C(F)(F)F)c1 | 364 nM | 41500 nM
